The text below walks through data of patent US20260078122A1, “INDAZOLE COMPOUNDS AS PKMYT1 KINASE INHIBITORS” (Hoffmann-La Roche Inc., priority 2023, published 2026).

SMILES strings stand for the structures. Where two headings read alike, the source gives them in different places.

The conditions of series [1]: microsomes, pH 7.4.
Series [2] can be described thus: GSH adduct screening assay. Format: in vitro ADME, human. The following applies: 20 μM compound, HLM 1 mg/ml, 5 mM GSH, 1 mM NADPH, 60 minutes at 37° C. Also on record: key: GSH adducts found (Flag); or not (No Flag).
Series [3] is described as follows: Human microsome stability assay. Particulars: 1 μM compound, 0.5 mg/mL liver microsomal protein, 1 mM NADPH, 37° C., 0-30 minutes.
Series [4] is described as follows: Human hepatocyte stability assay. The following applies: 1 μM compound, 1*10^6 cells/mL, 2-120 min. The format is in vitro ADME.
For series [5], the target named is T1, recombinant human Myt1 (full length PKMYT1) (Homo sapiens, UniProt Q99640).
T1 sequence (Q99640 1-499): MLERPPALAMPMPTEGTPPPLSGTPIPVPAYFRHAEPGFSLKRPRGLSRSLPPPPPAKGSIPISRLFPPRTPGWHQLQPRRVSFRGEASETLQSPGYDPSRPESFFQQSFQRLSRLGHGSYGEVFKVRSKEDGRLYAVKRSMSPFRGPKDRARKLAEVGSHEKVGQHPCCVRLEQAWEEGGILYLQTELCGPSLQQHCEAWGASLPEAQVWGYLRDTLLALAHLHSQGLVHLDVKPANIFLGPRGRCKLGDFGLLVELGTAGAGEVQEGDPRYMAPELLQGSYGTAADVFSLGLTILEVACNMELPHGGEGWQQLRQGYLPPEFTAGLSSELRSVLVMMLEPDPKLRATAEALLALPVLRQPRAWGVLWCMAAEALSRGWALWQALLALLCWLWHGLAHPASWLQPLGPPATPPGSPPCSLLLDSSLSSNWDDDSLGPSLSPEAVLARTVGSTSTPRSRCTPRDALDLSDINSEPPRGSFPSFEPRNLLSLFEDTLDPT
Briefly: ADP-Glo assay (Myt1 kinase activity). (In general: ADP-Glo turns the ADP formed in a reaction into a luminescent signal.)

Turning to `Cc1cc2[nH]c(=O)c(N)c(-c3ccc(F)c4[nH]ncc34)c2nc1N1CC2(COC2)C1` [Example 026, 3-Amino-4-(7-fluoro-1H-indazol-4-yl)-7-methyl-6-(2-oxa-6-azaspiro[3.3]heptan-6-yl)-1H-1,5-naphthyridin-2-one], the “Clearance of Human microsome” value in series [1] worked out at 0.532 L/h/kg.

Turning to `Cc1cc2[nH]c(=O)c(N)c(-c3ccc(F)c4[nH]ncc34)c2nc1Cl` [Example 003, 3-Amino-6-chloro-4-(7-fluoro-1H-indazol-4-yl)-7-methyl-1H-1,5-naphthyridin-2-one], the GSH adduct entry in series [2] is reported as “No Flag”. Besides, the “Clearance of Human microsome” value in series [3] turned out to be 0.533 L/h/kg.

What is called IC50 is the concentration at which inhibition is half-maximal. For `COc1cnc(C)c2[nH]c(=O)c(N)c(-c3ccc(F)c4[nH]ncc34)c12` [Example 173, 3-Amino-4-(7-fluoro-1H-indazol-4-yl)-5-methoxy-8-methyl-1H-1,7-naphthyridin-2-one], in series [4], the “Clearance of Human hepatocyte (μL/min/10^6 cell)” value (shortened to “Clearance of Human hepatocyte”) was <1 μL/min/10^6 cell. In addition, the “Clearance of Human microsome” value in series [3] came to 0.369 L/h/kg. The IC50 in series [5] was 0.0152 µM.

As to `N#Cc1nc(C2CC2)cc2[nH]c(=O)c(N)c(-c3ccc(F)c4[nH]ncc34)c12` [Example 167, 3-Amino-7-cyclopropyl-4-(7-fluoro-1H-indazol-4-yl)-2-oxo-1H-1,6-naphthyridine-5-carbonitrile], the “Clearance of Human hepatocyte” value in series [4] was <1 μL/min/10^6 cell. Besides, the “Clearance of Human microsome” value in series [3] turned out to be 0.408 L/h/kg. The IC50 in series [5] amounted to 0.0145 µM.

Regarding `C#Cc1cnc2c(-c3ccc(F)c4[nH]ncc34)c(N)c(=O)[nH]c2c1C` [Example 124, 3-Amino-7-ethynyl-4-(7-fluoro-1H-indazol-4-yl)-8-methyl-1H-1,5-naphthyridin-2-one], the GSH adduct entry in series [2] was “No Flag”. In series [5], the IC50 was < 0.01 µM.

For `Cc1ncc(OCC(F)(F)F)c2c(-c3ccc(F)c4[nH]ncc34)c(N)c(=O)[nH]c12` [Example 183, 3-Amino-4-(7-fluoro-1H-indazol-4-yl)-8-methyl-5-(2,2,2-trifuoroethoxy)-1H-1,7-naphthyridin-2-one], the “Clearance of Human hepatocyte” value in series [4] is given as <1 μL/min/10^6 cell. Also, the “Clearance of Human microsome” value in series [3] is 0.372 L/h/kg. The IC50 in series [5] turned out to be 0.0134 µM.

With `Nc1c(-c2ccc(F)c3[nH]ncc23)c2ncc(C3CC3)cc2[nH]c1=O` [Example 015, 3-Amino-7-cyclopropyl-4-(7-fluoro-1H-indazol-4-yl)-1H-1,5-naphthyridin-2-one], in series [4], the “Clearance of Human hepatocyte” value is reported as 2.6 μL/min/10^6 cell. Further, in series [2], the GSH adduct entry is on record as “No Flag”. Besides, the “Clearance of Human microsome” value in series [3] was 0.422 L/h/kg.

`Cc1nc(Cl)c2c(-c3ccc(F)c4[nH]ncc34)c(N)c(=O)[nH]c2c1C` [Example 160, 3-Amino-5-chloro-4-(7-fluoro-1H-indazol-4-yl)-7,8-dimethyl-1H-1,6-naphthyridin-2-one]: the GSH adduct entry in series [2] was “No Flag”. Also, in series [5], the IC50 came to 0.0115 µM.
